Assay results taken from patent publication US20230339891A1, “URACIL DERIVATIVES AS MER-AXL INHIBITORS” (BRISTOL-MYERS SQUIBB COMPANY, priority 2018, published 2023).
pIC50: −log10 of the molar value.

How the values were obtained:
[1] = molecular target: HIS-AXL 473-End (Homo sapiens (Human), UniProt P30530); test: AXL kinase homogeneous time resolved fluorescence (HTRF) binding assay; settings: 1 nM kinase, fluorescein-labeled kinase tracer at Kd, 60 minutes at room temperature
Method: (§1) MERTK, AXL, TYRO3 Kinase Homogeneous Time Resolved Fluorescence (HTRF) Assay
(§2) Assays were performed in black, flat-bottom, 1536-well plates. The reactions were incubated at room temperature for 60 minutes, following which the HTRF signals, ratio of fluorescence intensities at emission wavelengths for fluorescein acceptor (520 nm) and terbium donor (495 nm), the 520/495 ratio, were measured on the Envision Plate reader. Inhibition data were calculated from the 520/495 ratio generated by the no protein control reactions for 100% inhibition and vehicle-only reactions for 0% inhibition, and dose response curves generated to determine the concentration required for inhibiting 50% of the HTRF signal (IC50). Compounds were dissolved at 10 mM in dimethylsulfoxide (DMSO) and evaluated at eleven concentrations.

[2] = molecular target: GST-MERTK 578-872 (Homo sapiens (Human), UniProt Q12866); test: MERTK kinase homogeneous time resolved fluorescence (HTRF) binding assay; settings: 1 nM kinase, fluorescein-labeled kinase tracer at Kd, 60 minutes at room temperature; read-out: Mer HTRF IC50
GST-MERTK 578-872, sequence (Q12866 578-872): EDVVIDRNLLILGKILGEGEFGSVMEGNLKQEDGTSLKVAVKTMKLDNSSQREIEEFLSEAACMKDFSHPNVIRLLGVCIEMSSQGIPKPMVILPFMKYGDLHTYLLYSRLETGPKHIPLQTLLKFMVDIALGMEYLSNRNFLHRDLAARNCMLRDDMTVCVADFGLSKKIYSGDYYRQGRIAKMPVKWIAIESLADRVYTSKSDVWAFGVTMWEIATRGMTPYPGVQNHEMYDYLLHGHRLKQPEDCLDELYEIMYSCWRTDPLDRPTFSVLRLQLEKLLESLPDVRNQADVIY
Method: as §1, §2

HIS-AXL 473-End, sequence (P30530 473-894): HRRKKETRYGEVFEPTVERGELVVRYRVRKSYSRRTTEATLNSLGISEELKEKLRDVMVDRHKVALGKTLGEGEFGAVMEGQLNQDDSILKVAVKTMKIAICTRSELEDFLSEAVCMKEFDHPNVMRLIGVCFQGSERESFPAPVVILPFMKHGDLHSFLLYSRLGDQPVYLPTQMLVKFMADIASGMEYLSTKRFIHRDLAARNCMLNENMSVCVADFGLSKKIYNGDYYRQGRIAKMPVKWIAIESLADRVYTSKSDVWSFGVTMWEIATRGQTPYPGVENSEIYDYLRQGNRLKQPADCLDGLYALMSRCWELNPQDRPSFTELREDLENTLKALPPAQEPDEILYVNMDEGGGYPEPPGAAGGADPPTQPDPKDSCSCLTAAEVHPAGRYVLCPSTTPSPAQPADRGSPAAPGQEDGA

| Compound | pIC50 [1] | pIC50 [2] |
| --- | --- | --- |
| Cc1ccc(Nc2cc(Oc3ccc(NC(=O)c4cn(C(C)C)c(=O)n(-c5ccc(F)cc5)c4=O)cc3F)ccn2)nc1Cl [Example 7] | 7.68 | 7.09 |
| CC(C)n1cc(C(=O)Nc2ccc(Oc3ccnc(Nc4ccc(S(C)(=O)=O)cn4)c3)c(F)c2)c(=O)n(-c2ccc(F)cc2)c1=O [Example 18] | 7.96 | 7.74 |
| CC(C)n1cc(C(=O)Nc2ccc(Oc3ccnc(Nc4ccc(C#N)c(N5CCCC5)n4)c3)c(F)c2)c(=O)n(-c2ccc(F)cc2)c1=O [Example 117] | 8.52 | 8.55 |
| CN(C)S(=O)(=O)c1ccc(Nc2cc(Oc3ccc(NC(=O)c4cn(C)c(=O)n(-c5ccc(F)cc5)c4=O)cc3F)ccn2)nc1 [Example 44] | 7.72 | 7.15 |
| CC(C)n1cc(C(=O)Nc2ccc(Oc3ccnc(Nc4ccc5cc[nH]c5n4)c3)c(F)c2)c(=O)n(-c2ccc(F)cc2)c1=O [Example 25] | 8.44 | 7.89 |
| Cc1cccc(-n2c(=O)c(C(=O)Nc3ccc(Oc4ccnc(Nc5ccc(S(=O)(=O)N(C)C)cn5)c4)c(F)c3)cn(C(C)C)c2=O)c1 [Example 70] | 7.85 | 7.85 |
| CC(C)n1cc(C(=O)Nc2ccc(Oc3ccnc(Nc4ccc(S(=O)(=O)N(C)C)cn4)c3)c(F)c2)c(=O)n(Cc2ccncc2)c1=O [Example 58] | 6.54 | 6.70 |
| CC(C)NS(=O)(=O)c1ccc(Nc2cc(Oc3ccc(NC(=O)c4cn(C(C)C)c(=O)n(-c5ccc(F)cc5)c4=O)cc3F)ccn2)nc1 [Example 78] | 6.01 | 8.01 |
| Cc1ccc(Nc2cc(Oc3ccc(NC(=O)c4cn(C(C)C)c(=O)n(-c5ccc(F)cc5)c4=O)cc3F)ccn2)nc1 [Example 4] | 8.36 | 7.49 |
| COC1CCN(c2nc(Nc3cc(Oc4ccc(NC(=O)c5cn(C(C)C)c(=O)n(-c6ccc(F)cc6)c5=O)cc4F)ccn3)ccc2C#N)CC1 [Example 121] | 8.41 | 8.62 |
| CC(C)n1cc(C(=O)Nc2ccc(Oc3ccnc(Nc4nc(N5CCN(S(C)(=O)=O)CC5)ccc4F)c3)c(F)c2)c(=O)n(-c2ccc(F)cc2)c1=O [Example 135, N-{3-fluoro-4-[(2-{[3-fluoro-6-(4-methanesulfonylpiperazin-1-yl)pyridin-2-yl]amino}pyridin-4-yl)oxy]phenyl}-3-(4-fluorophenyl)-2,4-dioxo-1-(propan-2-yl)-1,2,3,4-tetrahydropyrimidine-5-carboxamide] | 8.96 | 9.00 |
| CC(C)n1cc(C(=O)Nc2ccc(Oc3ccnc(Nc4ccc(OC(F)(F)F)cn4)c3)c(F)c2)c(=O)n(-c2ccc(F)cc2)c1=O [Example 11] | 7.28 | 6.89 |
| CCOc1cnc(Nc2cc(Oc3ccc(NC(=O)c4cn(C(C)C)c(=O)n(-c5ccc(F)cc5)c4=O)cc3F)ccn2)cn1 [Example 29] | 8.14 | 6.74 |
| CC(C)n1cc(C(=O)Nc2ccc(Oc3ccnc(Nc4ccc(S(=O)(=O)N(C)C)cn4)c3)c(F)c2)c(=O)n(-c2ccc(F)c(F)c2)c1=O [Example 69] | 7.74 | 7.64 |
| CC(C)n1cc(C(=O)Nc2ccc(Oc3ccnc(Nc4ccc(S(=O)(=O)N5CC(O)C5)cn4)c3)c(F)c2)c(=O)n(-c2ccc(F)cc2)c1=O [Example 82] | 6.59 | 8.06 |
| CC(C)n1cc(C(=O)Nc2ccc(Oc3ccnc(Nc4ccc(C#N)c(N5CCC(O)CC5)n4)c3)c(F)c2)c(=O)n(-c2ccc(F)cc2)c1=O [Example 120] | 8.96 | 8.80 |
| COc1cccc(-n2c(=O)c(C(=O)Nc3ccc(Oc4ccnc(Nc5ccc(S(=O)(=O)N(C)C)cn5)c4)c(F)c3)cn(C(C)C)c2=O)c1 [Example 71] | 7.92 | 7.40 |
| CC(C)n1cc(C(=O)Nc2ccc(Oc3ccnc(Nc4ccc(C(=O)NS(=O)(=O)C(C)C)cn4)c3)c(F)c2)c(=O)n(-c2ccc(F)cc2)c1=O [Example 96] | 9.15 | 8.54 |
| CC(C)n1cc(C(=O)Nc2ccc(Oc3ccnc(Nc4ccc(S(=O)(=O)N(C)C)cn4)c3)cc2)c(=O)n(-c2ccc(F)cc2)c1=O [Example 74, N-{4-[(2-{[5-(dimethylsulfamoyl)pyridin-2-yl]amino}pyridin-4-yl)oxy]phenyl}-3-(4-fluorophenyl)-2,4-dioxo-1-(propan-2-yl)-1,2,3,4-tetrahydropyrimidine-5-carboxamide] | 8.54 | 5.84 |
| O=C(Nc1ccc(Oc2ccnc(Nc3ccnc(N4CCCC4)n3)c2)c(F)c1)c1cn(C2CC2)c(=O)n(-c2ccc(F)cc2)c1=O [Example 105] | 8.64 | 8.85 |

| Compound | pIC50 [1] | pIC50 [2] |
| --- | --- | --- |
| CN(C)S(=O)(=O)c1ccc(Nc2cc(Oc3ccc(NC(=O)c4cn(C5CC5)c(=O)n(-c5ccc(F)cc5)c4=O)cc3F)ccn2)nc1 [Example 40, 1-Cyclopropyl-N-{4-[(2-{[5-(dimethylsulfamoyl)pyridin-2-yl]amino}pyridin-4-yl)oxy]-3-fluorophenyl}-3-(4-fluorophenyl)-2,4-dioxo-1,2,3,4-tetrahydropyrimidine-5-carboxamide] | 8.42 | 7.96 |
| CC(C)n1cc(C(=O)Nc2ccc(Oc3ccnc(Nc4ccc(S(C)(=O)=O)cn4)c3)c(F)c2)c(=O)n(-c2ccc(F)cn2)c1=O [Example 37, N-[3-Fluoro-4-({2-[(5-methanesulfonylpyridin-2-yl)amino]pyridin-4-yl}oxy)phenyl]-3-(5-fluoropyridin-2-yl)-2,4-dioxo-1-(propan-2-yl)-1,2,3,4-tetrahydropyrimidine-5-carboxamide] | 8.59 | 7.85 |
| CC(C)n1cc(C(=O)Nc2ccc(Oc3ccnc(Nc4ccc(S(=O)(=O)N5CCN(C)CC5)cn4)c3)c(F)c2)c(=O)n(-c2ccc(F)cc2)c1=O [Example 85] | 8.41 | 7.72 |
| CC(C)n1cc(C(=O)Nc2ccc(Oc3ccnc(Nc4ccc(S(=O)(=O)N(C)C)cn4)c3)c(F)c2)c(=O)n(-c2cccc(C(F)(F)F)c2)c1=O [Example 72] | 7.05 | 6.92 |
| CC(C)n1cc(C(=O)Nc2ccc(Oc3ccnc(Nc4ccn(C(F)F)n4)c3)c(F)c2)c(=O)n(-c2ccc(F)cc2)c1=O [Example 35, N-{4-[(2-{[1-(Difluoromethyl)-1H-pyrazol-3-yl]amino}pyridin-4-yl)oxy]-3-fluorophenyl}-3-(4-fluorophenyl)-2,4-dioxo-1-(propan-2-yl)-1,2,3,4-tetrahydropyrimidine-5-carboxamide] | 9.10 | 8.37 |
| CC(C)NC(=O)c1ccc(Nc2cc(Oc3ccc(NC(=O)c4cn(C(C)C)c(=O)n(-c5ccc(F)cc5)c4=O)cc3F)ccn2)nc1 [Example 94] | – | 8.46 |
| CC(C)n1cc(C(=O)Nc2ccc(Oc3ccnc(Nc4ccc(C(N)=O)cn4)c3)c(F)c2)c(=O)n(-c2ccc(F)cc2)c1=O [Example 16] | 8.96 | 8.24 |
| CC(C)n1cc(C(=O)Nc2ccc(Oc3ccnc(Nc4ccc(N5CCOCC5)cn4)c3)c(F)c2)c(=O)n(-c2ccc(F)cc2)c1=O [Example 21] | 7.41 | 6.79 |
| CC(C)n1cc(C(=O)Nc2ccc(Oc3ccnc(Nc4ccc(C#N)c(N5CC[C@H](O)C5)n4)c3)c(F)c2)c(=O)n(-c2ccc(F)cc2)c1=O [Example 118] | 8.85 | 8.82 |
| CN(C)S(=O)(=O)c1ccc(Nc2cc(Oc3ccc(NC(=O)c4cn(C5CC5)c(=O)n(-c5ccccc5)c4=O)cc3F)ccn2)nc1 [Example 43] | 6.65 | 7.68 |
| Cc1cnc(Nc2ccnc(N3CCC(S(C)(=O)=O)CC3)n2)cc1Oc1ccc(NC(=O)c2cn(C(C)C)c(=O)n(-c3ccccc3)c2=O)cc1 [Example 115, N-{4-[(2-{[2-(4-methanesulfonylpiperidin-1-yl)pyrimidin-4-yl]amino}-5-methylpyridin-4-yl)oxy]phenyl}-2,4-dioxo-3-phenyl-1-(propan-2-yl)-1,2,3,4-tetrahydropyrimidine-5-carboxamide] | 7.39 | 6.09 |
| COC(=O)N1CCN(c2nc(Nc3cc(Oc4ccc(NC(=O)c5cn(C(C)C)c(=O)n(Cc6ccccc6)c5=O)cc4F)ccn3)ccc2C#N)CC1 [Example 130] | – | 8.15 |
| COC(=O)c1ccc(Nc2cc(Oc3ccc(NC(=O)c4cn(C(C)C)c(=O)n(-c5ccc(F)cc5)c4=O)cc3F)ccn2)nc1 [Example 14, Methyl 6-((4-(2-fluoro-4-(3-(4-fluorophenyl)-1-isopropyl-2,4-dioxo-1,2,3,4-tetrahydropyrimidine-5-carboxamido)phenoxy)pyridin-2-yl)amino)nicotinate] | 8.44 | 7.96 |
| CC(C)n1cc(C(=O)Nc2ccc(Oc3ccnc(Nc4ccnc(N5CCCC5)n4)c3)c(F)c2)c(=O)n(CC2CCCCC2)c1=O [Example 111] | – | 7.85 |
| CN(C)S(=O)(=O)c1ccc(Nc2cc(Oc3ccc(NC(=O)c4cn([C@H]5CCOC5)c(=O)n(-c5ccc(F)cc5)c4=O)cc3F)ccn2)nc1 [Example 47] | 8.22 | 8.10 |
| C[C@H](CO)n1cc(C(=O)Nc2ccc(Oc3ccnc(Nc4ccc(S(=O)(=O)N(C)C)cn4)c3)c(F)c2)c(=O)n(-c2ccc(F)cc2)c1=O [Example 56] | – | 7.77 |
| CC(C)n1cc(C(=O)Nc2ccc(Oc3ccnc(Nc4ccnc(N5CCCC5)n4)c3)c(F)c2)c(=O)n(CC2CC2)c1=O [Example 110] | – | 8.80 |
| C[C@H](CO)n1cc(C(=O)Nc2ccc(Oc3ccnc(Nc4ccc(S(=O)(=O)N(C)C)cn4)c3)c(F)c2)c(=O)n(-c2ccc(F)cc2)c1=O [Example 55] | – | 8.17 |
| CC(C)n1cc(C(=O)Nc2ccc(Oc3ccnc(Nc4ccc(C#N)c(N5CCC(O)(C(F)(F)F)CC5)n4)c3)c(F)c2)c(=O)n(Cc2ccccc2)c1=O [Example 132] | – | 7.92 |
